Data on one compound can be found in patent publication US20070060636A1, “High enantiomeric purity dexanabinol for pharmaceutical compositions” (priority 2002, published 2007).

Where two headings read alike, the source gives them in different places.

This data set in a line: 2nd Phase I study, single i.v. dose 48 or 150 mg, healthy male volunteers. Type of data set: in vivo, human. The note with it: for AUC∞/Dose: normalized for dose (mg/kg); for clearance / Cmax / MRT / AUC / AUC(0-inf) / half-life / Vd: male, human, plasma; for Vd: read-out: Vss. As to the method:
Pharmacokinetic parameters were estimated by a non-compartmental method using WinNonlin Professional version 3.2 (Pharsight Corp., Mountain View, Calif.). The maximum plasma concentration (Cmax), when the drug is administered by infusion, is the concentration at the end of infusion. The Cmax following intravenous bolus administration is the value estimated by the software to be the concentration at t=0. The terminal slope (X) was estimated by linear regression through the last time points and used to calculate the terminal half-life (t1/2) from the following equation: t1/2=0.693/λ The area under the curve from time of dosing through the last time point (AUCz) was calculated by the linear trapezoid method. The AUC extrapolated to infinity (AUC∞) was calculated from the following equation: AUC∞=AUCz+Cz/λ where Cz is the concentration at the last time point predicted by the linear regression. AUC∞ was normalized for dose (mg/kg) and presented as AUC∞/Dose. Mean residence time (MRT), when the drug is administered by infusion is described by the following equation: MRT=(AUMC/AUC)−(TI)/2 Mean residence time after i.v. bolus administration is described by the following equation: MRT=(AUMC/AUC) where AUMC is the area under the first moment curve and TI is the length of infusion. Plasma clearance (CL), and the apparent volume of distribution at steady state (Vss) were calculated from the following equations: CL=Dose/AUC∞ Vss=MRT×CL
A second human Phase I study involving 24 healthy male volunteers was carried out to compare the pharmacokinetics of dexanabinol following a single i.v. dose of 48 mg or 150 mg. The subjects were divided into two groups of 12 subjects each. Each group was premedicated with ATOSIL® 25 mg (Promethazine H1 blocker), and ZANTAC® 50 mg (Ranitidine H2 blocker) intravenously, followed 15 minutes later by a single short intravenous infusion of dexanabinol lasting 15 minutes. Blood samples for pharmacokinetic assays for dexanabinol were collected immediately before premedication (T=0), immediately after dosing (T=0+) (at the end of the infusion), at 5, 10, 20, 30, 45, and 60 min, and 2, 4, 6, 8, 12, 16, 24, 48, 72 and 96 hr post-dosing. Blood was also collected from four subjects from group 2 ([…]) on Days 6, 10 and 14. For both dose levels, initial rapid declines in plasma concentration followed by a progressively slower decline were observed.
Pharmacokinetic parameters were estimated by non-compartmental methods up to 96 hr post-infusion, using WinNonlin Professional version 3.2 (Pharsight Corp., Mountain View, Calif., USA).

Where [1] appears, read: human Phase I, 150 mg single i.v., reference itself.
Setting [2] is: iv, 48 mg single i.v. infusion, healthy volunteers, mean ± SE.
The mark [3] stands for this setting: iv, 48 mg single i.v. infusion, healthy volunteers, mean ± SE, up to 96 hr.
Setting [4] is: iv, 150 mg single i.v. infusion, healthy volunteers, mean ± SE.
Where [5] appears, read: iv, 150 mg single i.v. infusion, healthy volunteers, mean ± SE, up to 96 hr.

Regarding `CCCCCCC(C)(C)c1cc(O)c2c(c1)OC(C)(C)[C@H]1CC=C(CO)C[C@H]21` [dexanabinol, 1,1-dimethylheptyl-(3S,4S)-7-hydroxy-Δ^6-tetrahydrocannabinol], the “30 min plasma values as % of the end of infusion levels” value (48 mg and 150 mg) was “about 11%”. The “AUC∞/Dose” value by setting is: (48 mg single i.v. infusion, healthy volunteers, mean ± SE) 78,137 ± 4,305 ng × min/ml; (150 mg single i.v. infusion, healthy volunteers, mean ± SE) 93,408 ± 4,224 ng × min/ml. Also, the “AUC∞ Ratio to Phase I” value under setting [1] is recorded as 1.0. Besides, under setting [1], the “Cmax Ratio to Phase I” value came out at 1.0. In addition, the clearance is 12 mL/min/kg (intravenous, 48 mg and 150 mg, read-out: Total plasma clearance (CL), average across the two dose groups); 13.2 ± 0.7 mL/min/kg (iv, 48 mg single i.v. infusion, healthy volunteers, mean ± SE, read-out: CL); 10.9 ± 0.5 mL/min/kg (iv, 150 mg single i.v. infusion, healthy volunteers, mean ± SE, read-out: CL). For the same compound, the Cmax is 1230 ng/mL (intravenous, after the 48 mg dose (0.63 mg/kg), read-out: Maximum plasma concentrations (Cmax)); 5000 ng/mL (intravenous, at 150 mg (2.05 mg/kg), read-out: Maximum plasma concentrations (Cmax)); 1230 ng/mL (iv, 48 mg single i.v. infusion, healthy volunteers, mean ± SE, up to 96 hr, read-out: Cmax); 5010 ng/mL (iv, 150 mg single i.v. infusion, healthy volunteers, mean ± SE, up to 96 hr, read-out: Cmax). Besides, the MRT (as a rule, the average time that molecules of a dose stay in the body) under setting [2] is 8.4 ± 0.5 h and the MRT under setting [4] amounted to 6.9 ± 0.4 h. For the same compound, the AUC (in general, the area under the concentration-time curve, a measure of exposure) is 811 ng·h/mL under setting [3] and 3180 ng·h/mL under setting [5]. Besides, the total exposure AUC(0-inf) (usually total exposure, with the tail of the curve extrapolated) under setting [3] is 824 ng·h/mL and the AUC(0-inf) under setting [5] is 3210 ng·h/mL. Besides, the half-life – broadly, how long it takes for the measured level to halve – by setting is: under setting [3], 31.2 ± 3.6 h; under setting [5], 23.4 ± 1.8 h. Further, the Vd by setting is: under setting [2], 6.6 ± 0.5 L/kg; under setting [4], 4.5 ± 0.4 L/kg. In addition, the “safety in human subjects” value (the two phase I studies) was “safe, well tolerated and no psychomimetic side effects were detected”.
